Ki data for 2 compounds are collected here from ChEMBL document CHEMBL1149530, “Design and synthesis of a new, conformationally constrained, macrocyclic small-molecule inhibitor of STAT3 via 'click chemistry'” (Bioorg Med Chem Lett, 2007).

Where a SMILES comes first, the peptide text is derived from it. Bridges are numbered along the chain shown (N, C = ends). Triazole bridges read from a SMILES are 1,4-linked. [ ]: non-standard residue; d: D form. pY = N[C@@H](Cc1ccc(OP(=O)(O)O)cc1)C(=O)O; Lys(N3) = [N-]=[N+]=NCCCC[C@H](N)C(=O)O; Pra = C#CC[C@H](N)C(=O)O

A word on the Ki: it is the dissociation constant of the complex between target and ligand, obtained from inhibition or displacement.

This assay addresses Signal transducer and activator of transcription 3 (Homo sapiens, UniProt P40763). Kind of assay: Binding affinity to recombinant STAT3 by fluorescence polarization based binding assay. (In general: Polarisation of emitted light reports the rotation of a fluorescent probe.)

Sequence of Signal transducer and activator of transcription 3 (P40763 whole entry): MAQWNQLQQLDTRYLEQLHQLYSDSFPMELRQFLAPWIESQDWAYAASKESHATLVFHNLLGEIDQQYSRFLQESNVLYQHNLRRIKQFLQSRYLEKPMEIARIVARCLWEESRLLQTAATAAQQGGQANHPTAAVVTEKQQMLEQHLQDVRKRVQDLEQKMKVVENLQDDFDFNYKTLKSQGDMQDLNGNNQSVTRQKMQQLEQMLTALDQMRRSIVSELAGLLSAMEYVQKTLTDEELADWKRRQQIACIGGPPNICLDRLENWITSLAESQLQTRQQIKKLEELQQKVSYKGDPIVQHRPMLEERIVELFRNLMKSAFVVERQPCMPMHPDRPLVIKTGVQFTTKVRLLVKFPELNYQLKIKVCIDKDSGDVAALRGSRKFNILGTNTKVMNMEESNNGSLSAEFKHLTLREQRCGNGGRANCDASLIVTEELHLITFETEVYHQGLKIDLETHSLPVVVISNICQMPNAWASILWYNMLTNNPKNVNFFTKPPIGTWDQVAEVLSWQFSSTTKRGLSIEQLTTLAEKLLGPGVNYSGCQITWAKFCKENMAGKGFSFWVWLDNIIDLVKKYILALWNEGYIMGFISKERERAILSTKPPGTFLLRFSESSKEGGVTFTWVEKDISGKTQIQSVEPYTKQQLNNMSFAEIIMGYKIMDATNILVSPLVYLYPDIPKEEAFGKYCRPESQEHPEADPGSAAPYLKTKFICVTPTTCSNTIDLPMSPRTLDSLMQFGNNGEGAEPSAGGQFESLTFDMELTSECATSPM

As to `CC(=O)N[C@@H](Cc1ccc(OP(=O)(O)O)cc1)C(=O)N[C@@H](CC(C)C)C(=O)N[C@@H](CCCCN)C(=O)N[C@H](C(=O)N[C@@H](CCCCN)C(=O)N[C@@H](Cc1ccccc1)C(N)=O)[C@@H](C)O` (HELM PEPTIDE1{[ac].[O=C([C@H](Cc1ccc(OP(=O)(O)O)cc1)N[*:1])[*:2]].L.K.T.K.F.[am]}$$$$V2.0), the Ki worked out at 25.9 µM.

Consider `CC(=O)N[C@@H](Cc1ccc(OP(=O)(O)O)cc1)C(=O)N[C@@H](CC(C)C)C(=O)N[C@H]1CCCCn2cc(nn2)C[C@@H](C(=O)N[C@@H](Cc2ccccc2)C(N)=O)NC(=O)[C@H]([C@@H](C)O)NC1=O` (Ac-[pY]L[Lys(N3)]T[Pra]F-NH2; triazole 3-5), for which the inhibitory constant (Ki) was 7.3 µM.
